Experimental data taken from paper PMC12494831, “Discovery of new pyridine 3-carboxylic acid-based pharmacophores as dual anti-inflammatory and anti-hyperglycemic agents” (Scientific Reports, 2025).

Columns and labels:
[1] = DPPH radical scavenging (517 nm); conditions: for IC50: read-out: DPPH IC50±SD
Description: (§1) The experimental method principle relies on the degradation of the purple color of the DPPH radical and the blue color reduction of the ABTS cation radical. This is due to consuming the electron or hydrogen radical from the antioxidant (A-H). Both assays were measured at 517 nm and 734 nm, respectively. The distinction of color changes illustrates the potential scavenging activity of the inhibitor molecules in terms of hydrogen-donating proficiency. From this, we can conclude the anti-oxidant efficacy.
Methanolic DPPH solution (0.15 mM) was prepared, and 1.0 mL of DPPH solution was mixed with 3.0 mL of synthesized molecules at different concentrations (20 µM to 100 µM). The mixture was constantly swirled and stored RT for 30 min, followed by absorbance measurement at 517 nm.

[2] = biological target: T1, α-amylase (EC.3.2.1.1) (Homo sapiens, UniProt P04746); assay: In vitro α-amylase inhibition (starch/DNS, 540 nm); assay type: biochemical; conditions: for IC50: test concentrations 2-10 µg, read-out: α-Amylase IC50±SD (converted)
T1 sequence (P04746 16-511): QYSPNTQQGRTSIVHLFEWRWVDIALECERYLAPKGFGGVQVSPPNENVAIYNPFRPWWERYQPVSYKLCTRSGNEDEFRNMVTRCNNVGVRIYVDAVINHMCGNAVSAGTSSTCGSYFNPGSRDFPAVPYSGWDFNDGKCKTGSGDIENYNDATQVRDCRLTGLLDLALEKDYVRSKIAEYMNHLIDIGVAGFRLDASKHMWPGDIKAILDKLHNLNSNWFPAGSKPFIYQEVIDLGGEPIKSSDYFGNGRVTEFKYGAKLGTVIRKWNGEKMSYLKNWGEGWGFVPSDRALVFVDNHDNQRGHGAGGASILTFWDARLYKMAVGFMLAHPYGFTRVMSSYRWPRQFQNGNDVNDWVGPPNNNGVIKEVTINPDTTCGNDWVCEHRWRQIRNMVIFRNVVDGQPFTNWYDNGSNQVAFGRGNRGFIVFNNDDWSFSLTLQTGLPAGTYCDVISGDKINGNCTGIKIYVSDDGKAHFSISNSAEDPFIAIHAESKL
Description: α-Amylase enzyme and other chemical reagents are used for enzyme inhibitory activity. The characterized compounds are diluted in an analytical grad solvent (DMSO) system at 1 mg/mL solution concentration. The activity reaction of the synthesized analogues on the enzyme was treated at final concentrations of 2 to 10 µg. In the interaction between enzyme and compounds, 10 min incubation was maintained before the inhibitory activity started. The enzyme-receptor inhibition efficiency was calculated and compared with the positive control.
Sodium phosphate buffer 0.2 mM (pH 6.9 with 6 × 10^− 4 M NaCl) in 500 µL enzyme solution (0.5 mg/mL) was taken and incubated with test samples (2–10 µg/mL) at room temperature for 10 min. A starch (1%) solution of 500 µL with phosphate buffer was added to all test inhibitor samples; further, the tubes were incubated for 10 min at 28 °C. The reaction test tubes were incubated for another 5 min in the water bath (100 °C) after the addition of the color reagent dinitro salicylic acid and cooled at room temperature until reached. Finally, 10 mL of distilled water was mixed with each test tube, and the colored mixture was measured at a fixed wavelength of 540 nm. The absorbance without sample solution (blank) and control (buffer and standard drug sample) was measured at 540 nm. The α-amylase inhibition efficiency was validated using the following equation:2 [drawing 2]

[3] = test system: human RBC; assay: Anti-inflammatory activity: hypotonic solution-induced human RBC hemolysis (560 nm); assay type: cell-based; conditions: for IC50: induced human RBC hemolysis, read-out: Inflammatory IC50±SD
Description: All synthesized compounds are validated in human RBC (blood sample); the blood sample was collected from a healthy volunteer in an EDTA tube. The EDTA tube further proceeded with centrifugation at 3000 rpm for 30 min. A supernatant (which contains plasma and leucocytes) solution was isolated, and the obtained RBC (red blood cells) was further treated with Alsever’s reagent. Alsever’s reagent was prepared as follows: sodium citrate (0.8 g, 2.6 mmol), dextrose (2 g, 11.0 mmol), citric acid (0.050 g, […]), and sodium chloride (0.42 g, 7.0 mmol) were solubilized in 100 mL of distilled water. The above mixture was centrifuged for 30 min at 3000 rpm. Then, colloidal blood cells were separated, carefully transferred, and washed with 0.85% of the isosaline solution; this process continued until a clear solution appeared. Employing coagulated RBC and generated human erythrocyte hemolysis, the anti-inflammatory activity and potential of the synthesized entities were evaluated. The tested compounds are prepared at different concentrations for the inhibition activity of inflammation, along with 100 µL of a purified RBC sample utilized. All characterized samples were followed by adding 5.0 mL of trisodium phosphate (10 mM) and 5.0 mL of sodium chloride (5.0 mM) buffer solutions. After the addition of the above mixtures, the test samples are incubated for 15 min at room temperature with RBC and hypotonic mixtures. After incubation, the mixture was centrifuged at 3000 rpm for 15 min. The final supernatant liquid solution was measured at 560 nm using a UV-visible spectrophotometer.3 [drawing 3]

[4] = ABTS cation radical scavenging (734 nm); conditions: for IC50: read-out: ABTS IC50±SD
Description: as §1
In brief, 7.0 mM ABTS in H2O and 2.5 mM potassium persulfate (1:1) were shaken well to generate ABTS cation radicals and kept in the dark at RT for 15–20 h before it is used for the experiment. After, the radical was mixed with the synthesized molecules at different concentrations (20 µM to 100 µM). The resultant solution was measured for absorbance at 734 nm. Ascorbic acid is the positive control for this experiment.1 [drawing 1]

| Compound | DPPH Inhibition % ([1]; 20 µM) [%] | DPPH Inhibition % ([1]; 40 µM) [%] | DPPH Inhibition % ([1]; 60 µM) [%] | DPPH Inhibition % ([1]; 80 µM) [%] | DPPH Inhibition % ([1]; 100 µM) [%] | IC50 [1] [µM] | α-Amylase Inhibition % ([2]; 2 µg) [%] | α-Amylase Inhibition % ([2]; 4 µg) [%] | inhibition at 20 µM [3] [%] | inhibition at 40 µM [3] [%] | inhibition at 60 µM [3] [%] | inhibition at 80 µM [3] [%] | inhibition at 100 µM [3] [%] | IC50 [3] [µM] | ABTS Inhibition % ([4]; 20 µM) [%] | ABTS Inhibition % ([4]; 40 µM) [%] | ABTS Inhibition % ([4]; 60 µM) [%] | ABTS Inhibition % ([4]; 80 µM) [%] | ABTS Inhibition % ([4]; 100 µM) [%] | IC50 [4] [µM] | other results |
| --- | --- | --- | --- | --- | --- | --- | --- | --- | --- | --- | --- | --- | --- | --- | --- | --- | --- | --- | --- | --- | --- |
| CCOc1ccc2nc(NC(=O)c3cccnc3)sc2c1 [Compound 2k, N-(6-ethoxybenzothiazol-2-yl) nicotinamide] | 8.89 | 33.34 | 40.65 | 49.83 | 52.31 | 79.62 ± 0.14 | 74.81 | 74.52 | 48.6 | 55 | 66.8 | 74.5 | 87.5 | 25.86 ± 0.23 | 37.6 | 41.8 | 46.3 | 47.9 | 55.8 | 88.03 ± 0.17 | α-Amylase Inhibition % ([2]; 6 µg): 69.98%; α-Amylase Inhibition % ([2]; 8 µg): 69.69%; α-Amylase Inhibition % ([2]; 10 µg): 55.63%; IC50 [2]: 5.06 µM |
| O=C(Nc1ccc2c(c1)OCO2)c1cccnc1 [Compound 2j, N-(Benzo[1,3]dioxol-5-yl)nicotinamide] | 34.8 | 37.7 | 43.7 | 46 | 50.1 | 97.62 ± 0.24 | 85.94 | 75.4 | 59 | 68 | 75 | 92.7 | 93 | 20.3 ± 0.22 | 28.3 | 39 | 42.4 | 45 | 47.9 | 57.25 ± 0.11 | α-Amylase Inhibition % ([2]; 6 µg): 74.67%; α-Amylase Inhibition % ([2]; 8 µg): 68.96%; α-Amylase Inhibition % ([2]; 10 µg): 57.1%; IC50 [2]: 5.47 µM |
| COC(=O)C=Cc1cc(OC)c(OC(=O)c2cccnc2)c(OC)c1 [Compound 2d, 2,6-dimethoxy-4-(3-methoxy-3-oxoprop-1-en-1-yl)phenyl nicotinate] | 36.2 | 56.3 | 80.5 | 87.4 | 88.3 | 32.02 ± 0.26 |  |  | 59 | 62 | 65.4 | 75.2 | 84.4 | 20.2 ± 0.26 | 56.9 | 59.6 | 62.5 | 62.6 | 63.2 | 21.57 ± 0.11 |  |
| COC(=O)C=Cc1cccc(OC(=O)c2cccnc2)c1 [Compound 2f, 3-(3-Methoxy-3-oxoprop-1-en-1-yl)-phenyl nicotinate] | 35.31 | 38.4 | 41.11 | 43.18 | 45.7 | 78.05 ± 0.08 | 79.2 | 77.89 | 31 | 37 | 42 | 45.6 | 49 | 65.24 ± 0.18 | 27.6 | 33.8 | 41.5 | 52 | 60.1 | 81.05 ± 0.22 | α-Amylase Inhibition % ([2]; 6 µg): 56.22%; α-Amylase Inhibition % ([2]; 8 µg): 47.87%; α-Amylase Inhibition % ([2]; 10 µg): 36.74%; IC50 [2]: 4.71 µM |
| O=C(c1ccccc1)c1ccc2n1CCC2C(=O)O (centres unmarked) [Ketorolac, reference compound] |  |  |  |  |  |  |  |  | 91 | 92 | 93 | 93.5 | 94 | 11.8 ± 0.17 |  |  |  |  |  |  |  |
| COC(=O)C=Cc1ccccc1OC(=O)c1cccnc1 [Compound 2g, 2-(3-Methoxy-3-oxoprop-1-en-1-yl)phenyl nicotinate] | 34.94 | 44.35 | 46.41 | 50.02 | 61.07 | 81.81 ± 0.01 | 80.38 | 73.64 | 79 | 80.2 | 80.3 | 85.6 | 86 | 85.56 ± 0.25 | 56 | 57 | 58.1 | 60.2 | 62 | 21.85 ± 0.21 | α-Amylase Inhibition % ([2]; 6 µg): 73.06%; α-Amylase Inhibition % ([2]; 8 µg): 40.84%; α-Amylase Inhibition % ([2]; 10 µg): 29.72%; IC50 [2]: 4.79 µM |
| COc1cc(C(C)=O)ccc1OC(=O)c1cccnc1 [Compound 2i, 4-Acetyl-2-methoxyphenyl nicotinate] | 8.89 | 33.34 | 40.65 | 49.83 | 52.22 | 99.62 ± 0.15 | 77.74 | 76.42 | 17.6 | 25.3 | 47 | 58 | 70 | 66.97 ± 0.28 | 41.6 | 44.7 | 49.5 | 53.9 | 60.4 | 38.43 ± 0.21 | α-Amylase Inhibition % ([2]; 6 µg): 74.67%; α-Amylase Inhibition % ([2]; 8 µg): 71.01%; α-Amylase Inhibition % ([2]; 10 µg): 70.86%; IC50 [2]: 5.25 µM |
| C[C@H]1O[C@H](O[C@H]2[C@H](O)[C@@H](O)[C@@H](O[C@H]3[C@H](O)[C@@H](O)C(O)O[C@@H]3CO)O[C@@H]2CO)[C@H](O)[C@@H](O)[C@@H]1N[C@H]1C=C(CO)[C@@H](O)[C@H](O)[C@H]1O (some centres unmarked) [Acarbose, reference compound] |  |  |  |  |  |  | 85.59 | 83.98 |  |  |  |  |  |  |  |  |  |  |  |  | α-Amylase Inhibition % ([2]; 6 µg): 82.19%; α-Amylase Inhibition % ([2]; 8 µg): 80.97%; α-Amylase Inhibition % ([2]; 10 µg): 80.38% |
| O=C1O[C@H]([C@@H](O)CO)C(O)=C1O [Ascorbic acid, reference compound] | 91 | 91.8 | 93.7 | 94.3 | 96.1 | 11.81 ± 0.04 |  |  |  |  |  |  |  |  | 90 | 93 | 95 | 96 | 96.5 | 11.9 ± 0.01 |  |
